# Source: US20110124606A1, “SENSE-IMPROVING AGENT” (SNOW BRAND MILK PRODUCTS CO., LTD., priority 2007, published 2011)
# What was measured:
# [1] = system: PC-12 cells; assay: Cell differentiation-promoting activity: PC-12 cells cultured in culture supernatant of treated 3T3 cells; format: cell-based; details: supernatant of 3T3 cells cultured two days with 200 μg/l
# Protocol: 3T3 cells, which is fibroblast cell strain known to be present in skin, were cultured for two days under the condition that the milk-derived phospholipid-containing composition of Example 1 or 2 was added at a concentration of 200 μg/l (Example 1: Group A, Example 2: Group B). As a control, 3T3 cells were cultured for two days without adding the milk-derived phospholipid-containing composition obtained in Example 1 or 2 (Group C). PC-12 cells (nerve model cells) were cultured using the culture supernatant thereof, and morphological differentiation of the PC-12 cells was observed. […] It was confirmed that 95% or more of the cells were differentiated when using the culture supernatant of the group A or B. On the other hand, the PC-12 cells were not differentiated when using the culture supernatant of the group C. No differentiation was observed through an optical microscope even though the experiment was repeated several times. It was thus confirmed that the milk-derived phospholipid-containing compositions obtained in Examples 1 and 2 promote differentiation of the PC-12 cells which was nerve model cells.
# 3T3 cells, which is fibroblast cell strain known to be present in skin, were cultured for two days under the condition that the sphingomyelin obtained in Example 3 was added at a concentration of 200 μg/l (group A). […]
# [2] = system: Healthy elderly persons who suffered deterioration in sensation in the hands; assay: Pain sensation in palm and foot by Algesiometer, oral intake of sphingomyelin (Test Example 5); format: in vivo, human; details: for Hand Foot bottom sensation measurement (before intake): Average value / Hand sensation measurement (before intake): Average value / Hand Foot bottom sensation measurement (after intake for 12 weeks): Average value / Hand sensation measurement (after intake for 12 weeks): Average value: Normal 0 to Deterioration III 3 points; for Hand Foot bottom sensation measurement (before intake): Deterioration I / Hand Foot bottom sensation measurement (before intake): Deterioration II / Hand Foot bottom sensation measurement (before intake): Deterioration III / Hand Foot bottom sensation measurement (before intake): Normal / Hand sensation measurement (before intake): Deterioration I / Hand sensation measurement (before intake): Deterioration II / Hand sensation measurement (before intake): Deterioration III / Hand sensation measurement (before intake): Normal / Hand Foot bottom sensation measurement (after intake for 12 weeks): Deterioration I / Hand Foot bottom sensation measurement (after intake for 12 weeks): Deterioration II / Hand Foot bottom sensation measurement (after intake for 12 weeks): Deterioration III / Hand Foot bottom sensation measurement (after intake for 12 weeks): Normal / Hand sensation measurement (after intake for 12 weeks): Deterioration I / Hand sensation measurement (after intake for 12 weeks): Deterioration II / Hand sensation measurement (after intake for 12 weeks): Deterioration III / Hand sensation measurement (after intake for 12 weeks): Normal: subjects per criterion, 15 per group; for sensation in the palm and the bottom of the foot (in words): 12 weeks
# Protocol: The pain sensation was evaluated using five pins that differ in thickness in combination with five fulcrum positions. The thinnest pin 1 was rolled along the medial side of the arm, and the subject was asked about the degree of normal pain sensation. The pin 1 was then rolled along the palm and the bottom of the foot while sequentially changing the holder fulcrum position to determine the fulcrum position at which the same pain sensation degree as the first pain sensation occurred. The Algesiometer is designed so that the pain sensations with same degree occur between when rolling the pin 1 (fulcrum: 50 g) along the medial side of the arm and when rolling the pin 2 (fulcrum: 50 g) along the palm. The pain sensation was evaluated as follows in accordance with the instruction manual. The pain sensation was evaluated by points, and the average points were calculated. Normal (0 points): The same pain sensation occurred when rolling the pin 2 (fulcrum: 50 g). Deterioration I (1 point): The same pain sensation occurred when rolling the pin 1 (fulcrum: 50 g). Deterioration II (2 points): The same pain sensation occurred when rolling the pin 1 (fulcrum: 60 g): Deterioration III (3 points): The same pain sensation occurred when rolling the pin 1 (fulcrum: 70 g): Healthy elderly persons (average age: 75±3) who suffered deterioration in sensation in the hands were divided into three groups (one group: 15 subjects). The subjects took the sphingomyelin obtained in Example 4 in an amount of 0 mg, 4 mg, or 8 mg for 12 weeks. The pain sensation in the palm and the arch of the foot was measured with 4 criteria (normal, deteriorations I, II, and III) before the intake and after the intake for 12 weeks with reference to the pain sensation in the medial side of the arm using a pain/touch-pressure sensation measuring device (“Algesiometer” manufactured by Intercross Ltd.) in accordance with the instruction manual. After the intake for 12 weeks, a questionnaire survey on improvement in sensation in the hands was carried out to each elderly person. The measurement method and the evaluation method are the same as those employed in Test Example 4.
# [3] = system: Healthy elderly persons who suffered deterioration in sensation in the hands; assay: Questionnaire survey on improvement in sensation, oral intake of sphingomyelin (Test Example 5); format: in vivo, human; details: subjects of 15
# Protocol: Healthy elderly persons (average age: 75±3) who suffered deterioration in sensation in the hands were divided into three groups (one group: 15 subjects). The subjects took the sphingomyelin obtained in Example 4 in an amount of 0 mg, 4 mg, or 8 mg for 12 weeks. The pain sensation in the palm and the arch of the foot was measured with 4 criteria (normal, deteriorations I, II, and III) before the intake and after the intake for 12 weeks with reference to the pain sensation in the medial side of the arm using a pain/touch-pressure sensation measuring device (“Algesiometer” manufactured by Intercross Ltd.) in accordance with the instruction manual. After the intake for 12 weeks, a questionnaire survey on improvement in sensation in the hands was carried out to each elderly person. The measurement method and the evaluation method are the same as those employed in Test Example 4.
substance,measurement,setting,value
sphingomyelin [Example 3],morphological differentiation of PC-12 cells,[1],highly differentiated
same,differentiation rate of PC-12 cells,[1]; optical microscope,≥ 94%
sphingomyelin [Example 4],Hand Foot bottom sensation measurement (before intake): Average value,[2]; 4 mg group,2.1 points
same,Hand sensation measurement (before intake): Average value,[2]; 4 mg group,2.1 points
same,Hand Foot bottom sensation measurement (before intake): Deterioration I,[2]; 4 mg group,3
same,Hand Foot bottom sensation measurement (before intake): Deterioration II,[2]; 4 mg group,7
same,Hand Foot bottom sensation measurement (before intake): Deterioration III,[2]; 4 mg group,5
same,Hand Foot bottom sensation measurement (before intake): Normal,[2]; 4 mg group,0
same,Hand sensation measurement (before intake): Deterioration I,[2]; 4 mg group,3
same,Hand sensation measurement (before intake): Deterioration II,[2]; 4 mg group,7
same,Hand sensation measurement (before intake): Deterioration III,[2]; 4 mg group,5
same,Hand sensation measurement (before intake): Normal,[2]; 4 mg group,0
same,Hand Foot bottom sensation measurement (before intake): Average value,[2]; 8 mg group,2.3 points
same,Hand sensation measurement (before intake): Average value,[2]; 8 mg group,2.3 points
same,Hand Foot bottom sensation measurement (before intake): Deterioration I,[2]; 8 mg group,2
same,Hand Foot bottom sensation measurement (before intake): Deterioration II,[2]; 8 mg group,7
same,Hand Foot bottom sensation measurement (before intake): Deterioration III,[2]; 8 mg group,6
same,Hand Foot bottom sensation measurement (before intake): Normal,[2]; 8 mg group,0
same,Hand sensation measurement (before intake): Deterioration I,[2]; 8 mg group,2
same,Hand sensation measurement (before intake): Deterioration II,[2]; 8 mg group,6
same,Hand sensation measurement (before intake): Deterioration III,[2]; 8 mg group,7
same,Hand sensation measurement (before intake): Normal,[2]; 8 mg group,0
same,sensation in the palm and the bottom of the foot (in words),[2]; intake 4 mg,tended to be improved
same,Hand Foot bottom sensation measurement (after intake for 12 weeks): Average value,[2]; intake 4 mg,1.7 points
same,Hand sensation measurement (after intake for 12 weeks): Average value,[2]; intake 4 mg,1.5 points
same,Hand Foot bottom sensation measurement (after intake for 12 weeks): Deterioration I,[2]; intake 4 mg,5
same,Hand Foot bottom sensation measurement (after intake for 12 weeks): Deterioration II,[2]; intake 4 mg,7
same,Hand Foot bottom sensation measurement (after intake for 12 weeks): Deterioration III,[2]; intake 4 mg,2
same,Hand Foot bottom sensation measurement (after intake for 12 weeks): Normal,[2]; intake 4 mg,1
same,Hand sensation measurement (after intake for 12 weeks): Deterioration I,[2]; intake 4 mg,5
same,Hand sensation measurement (after intake for 12 weeks): Deterioration II,[2]; intake 4 mg,6
same,Hand sensation measurement (after intake for 12 weeks): Deterioration III,[2]; intake 4 mg,2
same,Hand sensation measurement (after intake for 12 weeks): Normal,[2]; intake 4 mg,2
same,sensation in the palm and the bottom of the foot (in words),[2]; intake 8 mg,significantly improved
same,Hand Foot bottom sensation measurement (after intake for 12 weeks): Average value,[2]; intake 8 mg,1.6 points
same,Hand sensation measurement (after intake for 12 weeks): Average value,[2]; intake 8 mg,1.3 points
same,Hand Foot bottom sensation measurement (after intake for 12 weeks): Deterioration I,[2]; intake 8 mg,7
same,Hand Foot bottom sensation measurement (after intake for 12 weeks): Deterioration II,[2]; intake 8 mg,4
same,Hand Foot bottom sensation measurement (after intake for 12 weeks): Deterioration III,[2]; intake 8 mg,3
same,Hand Foot bottom sensation measurement (after intake for 12 weeks): Normal,[2]; intake 8 mg,1
same,Hand sensation measurement (after intake for 12 weeks): Deterioration I,[2]; intake 8 mg,7
same,Hand sensation measurement (after intake for 12 weeks): Deterioration II,[2]; intake 8 mg,3
same,Hand sensation measurement (after intake for 12 weeks): Deterioration III,[2]; intake 8 mg,2
same,Hand sensation measurement (after intake for 12 weeks): Normal,[2]; intake 8 mg,3
same,Foot sensation: Improved,[3]; intake 4 mg for 12 weeks,5
same,Foot sensation: Same,[3]; intake 4 mg for 12 weeks,9
same,Foot sensation: Worsened,[3]; intake 4 mg for 12 weeks,1
same,Hand sensation: Improved,[3]; intake 4 mg for 12 weeks,6
same,Hand sensation: Same,[3]; intake 4 mg for 12 weeks,7
same,Hand sensation: Worsened,[3]; intake 4 mg for 12 weeks,2
same,Foot sensation: Improved,[3]; intake 8 mg for 12 weeks,8
same,Foot sensation: Same,[3]; intake 8 mg for 12 weeks,7
same,Foot sensation: Worsened,[3]; intake 8 mg for 12 weeks,0
same,Hand sensation: Improved,[3]; intake 8 mg for 12 weeks,10
same,Hand sensation: Same,[3]; intake 8 mg for 12 weeks,4
same,Hand sensation: Worsened,[3]; intake 8 mg for 12 weeks,1
